{"source": "paper PMC11117309", "note": "Non-standard residues stand in square brackets, D forms with d. Residues, ends and D or L forms follow the SMILES beside them.", "data": [{"molecule": "CC[C@@H](C)[C@@H](NC(=O)[C@@H](C)NC(=O)[C@@H](CCC(=O)O)NC(=O)[C@H](NC(=O)[C@@H](CC(C)C)NC(=O)[C@@H](CCC(=O)O)NC(=O)CNC(=O)[C@@H](C)NC(=O)[C@@H](C)NC(=O)[C@@H](CC(C)C)NC(=O)[C@H](NC(=O)[C@@H](Cc1ccccc1)NC(=O)[C@@H](CC(C)C)NC(=O)[C@@H](CCC(=O)O)NC(=O)[C@@H](CC(C)C)NC(=O)[C@@H](Cc1ccccc1)NC(=O)[C@@H](C)NC(=O)[C@@H](CCCCN)NC(=O)CNC(=O)[C@H](N)CCCNC(=N)N)[C@H](C)CC)[C@H](C)CC)C(=O)N[C@H](CC(=O)O)C(=O)N[C@H](CCCNC(=N)N)C(=O)N[C@@H](C(=O)N[C@H](Cc1ccccc1)C(=O)N[C@@H](C(=O)NCC(=O)N[C@H](CCC(=O)O)C(=O)N[C@H](C)C(=O)N[C@H](Cc1c[nH]cn1)C(=O)O)[C@H](C)O)[C@H](C)O", "note": "(H-[dR]G[dK][dA][dF][dL][dE][dL][dF][dI][dL][dA][dA]G[dE][dL][dI][dE][dA][dI][dD][dR][dT][dF][dT]G[dE][dA][dH]-OH)", "values": [{"measurement": "peptide remaining after proteinase K exposure", "result": "> 88", "unit": "%"}]}]}
